Values quoted from earlier work as cited in patent US11793953B2, “Inhalers and related methods” (Norton (Waterford) Limited, priority 2017, dated 2023).

- surface tension (as liquid at 25° C.): about 8 mN/m
- vapor pressure (at 20° C.): 572 kpa
Compound: FCC(F)(F)F [HFA134a, 1,1,1,2-tetrafluoroethane]
